Assay results as given in patent US20200214296A1, “MICROBICIDAL COMPOSITION” (DDP Specialty Electronic Materials US, Inc., priority 2017, published 2020).

Columns and labels:
Thermus thermophilus = experiment: Synergy in the planktonic phase, biocide challenge with resazurin regrowth readout; assay type: cell-based, Thermus thermophilus (DSM: 579)
Method: The inoculum prepared added between to 1*10^8 to 1*10^9 total cells/ml (in each well). At several timepoints 20 microliter aliquots of each treatment (well) were added to 96 well plates with TSB+Resazurin. These 96 well plates were filled with 'recovery' media (TSB 30 grams/liter). One of such plates was prepared for each column of the assay block. 180 μl recovery media was added to each well of a 96 well plate, except for column 1 of the recovery plate. This column was filled with 180 μl of one column of the assay block. The last three columns on the recovery plate were not pipetted. These columns represented the no template control for verifying proper plate set up and data reliability. […] The recovery plates were subsequently read (checked for microbial growth) at 24 and 48 hours after addition of the culture. Plate reading took place twice for each time point, to look at potential changes. Reading took place utilizing separate 96 wells plates pre filled with fresh media. […] This was done in triplicate for each point (the triplicate is already present in the biocide block viz. each point is truly determined in triplicate). […] Ranking was done per average value of three data points determined per experiment. (Recorded in log regrowth). […]

[1] = test system: Pseudomonas aeruginosa biofilm; experiment: Biofilm dissipation synergy on MBEC plate pegs; assay type: cell-based; conditions: P. aeruginosa biofilm, 24 hour contact time, 5 day regrowth; pass = total eradication of the biofilm
Method: One measure of synergism is the industrially accepted method described by Kull, […]. and Mayer, R. L., in Applied Microbiology 9:538-541 (1961), using the ratio determined by the formula: Qa/QA+Qb/QB=Synergy Index (“SI”) […] A Pseudomonas aeruginosa culture was prepared from glycerol stocks. First, the culture was streak plated. Single colonies were selected and shake flasks were inoculated and left overnight at 37° C. (TSB medium). The culture was diluted in phosphate buffer pH 7.3 1:1000000 prior to set up the biofilm plate Biofilm was developed overnight on P&G MBEC plates. The 96 well plates were covered with the lid holding the pegs partially submerged in the growth media. Biofilm was developed on the pegs leading to a total cell amount of 7*10^10 cells per peg. The top plates (with the pegs) were then subsequently washed and then placed into a 96 well challenge plate with the biocidal components in the given amounts. […] The contact time of the biofilms with the microbicidal mix was 24 hours. After the challenging, the biofilms were gently washed, sonicated from the pegs into recovery media (TSB 30 g/l, with resazurin, 0.01%), from these wells directly after sonication 10× dilution series were made on separate plates. These were left to recover for 3 to 5 days at 30° C. […] It could then be back-calculated how many cells remained after challenging of the biofilm with biocides. […]

[2] = test system: Pseudomonas aeruginosa & E. coli mix; experiment: Synergy in the planktonic phase, biocide challenge with resazurin regrowth readout; assay type: cell-based, Pseudomonas aeruginosa (DSM: 50071) and E. coli (DSM: 1576); conditions: P. aeruginosa/E. coli, after 48 hours, phosphate buffer pH 7.3, used alone
Method: Pseudomonas aeruginosa (DSM: 50071) and E. coli (DSM: 1576) cultures were separately prepared from glycerol stocks; first they were streak plated and validated with a microscope. Single colonies were picked and shake flasks were inoculated and left overnight at 37° C. (TSB medium) to produce the initial inoculum. The challenge block (a 96 wells plate) was prepared using phosphate buffer at pH 7.3, (0.0027M potassium chloride, 0.137 M sodium chloride). The Biocide challenging was done at 30° C. Inoculation took place at the start of the experiments and after 48 hours a re-inoculation was done. Challenging was monitored up to 7 days in total. In Table 1, the concentrations used for the synergy experiments are listed. Each experiment was done in triplicate. […] The recovery plates were subsequently read (checked for microbial growth) at 24 and 48 hours after addition of the culture. Plate reading took place twice for each time point, to look at potential changes. Reading took place utilizing separate 96 wells plates pre filled with fresh media. […] This was done in triplicate for each point (the triplicate is already present in the biocide block viz. each point is truly determined in triplicate). […] Ranking was done per average value of three data points determined per experiment. (Recorded in log regrowth). […]

Q: What does the source list for `O=CC=O` [Glyoxal, glyoxal]?
A: Glyoxal standalone 48 h pass (Thermus thermophilus; T. thermophilus, planktonic, after 48 hours, 60° C., standard ocean matrix salinity 2%, used alone): 40 ppm; Sensitivity of Thermus thermophilus vs. Pseudomonas aeruginosa and E. coli (Thermus thermophilus; comparison in words, footnote of Table 2): more sensitive; Glyoxal (standalone pass) [1]: 1280 ppm; Glyoxal standalone 48 h pass [2]: ≥2000 ppm
